Assay [1] deals with T1, human P450 51A1 (Homo sapiens, UniProt Q16850).
T1 sequence (Q16850 1-509): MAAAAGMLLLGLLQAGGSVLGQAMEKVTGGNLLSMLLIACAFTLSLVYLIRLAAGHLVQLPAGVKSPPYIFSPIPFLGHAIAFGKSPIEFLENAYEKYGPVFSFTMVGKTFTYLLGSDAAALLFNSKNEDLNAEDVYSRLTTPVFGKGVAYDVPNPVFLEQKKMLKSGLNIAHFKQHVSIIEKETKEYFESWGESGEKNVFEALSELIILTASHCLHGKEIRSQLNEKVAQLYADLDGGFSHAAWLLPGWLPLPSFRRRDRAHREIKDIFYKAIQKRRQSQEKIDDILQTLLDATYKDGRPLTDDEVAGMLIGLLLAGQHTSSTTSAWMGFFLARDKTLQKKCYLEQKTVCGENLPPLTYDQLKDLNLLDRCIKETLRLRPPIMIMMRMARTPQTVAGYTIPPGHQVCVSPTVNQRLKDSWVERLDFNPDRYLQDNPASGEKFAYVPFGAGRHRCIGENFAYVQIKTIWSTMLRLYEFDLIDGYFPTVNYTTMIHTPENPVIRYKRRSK
The experiment in a line: Inhibition of dihydrolanosterol 14-demethylation (oxidation to dihydro FF-MAS). Type of assay: biochemical. On the set-up: made in house; host or cells: Escherichia coli. The source says:
Agnosterol (Fig. 2) is a common Δ^7,14 contaminant of commercial lanosterol preparations (Fig. S22) ([25], [36]). We also encountered this molecule and its derivatives, with its characteristic UV spectra derived from our synthesis beginning with 7-dehydrocholesterol (Figs. S1 and S17). The most likely entry point is the m-chloroperbenzoic acid epoxidation (Fig. S1, step 7) ([37]). […] The contaminant could be removed by preparative HPLC (C18, CH3CN, see Supporting Information).
epi-Dihydrolanosterol, which appears to be an obscure natural product ([32]), was recovered as a side product in one of the synthetic steps and shown to bind to human P450 51A1 tightly and be demethylated at a similar rate as the common β-hydroxy isomer (Figs 5B and 7A), behavior similar to that earlier reported for the yeast (Saccharomyces cerevisiae) enzyme ([34]). An H-bond between the sterol C3-OH and the main chain oxygen of a P450 51 residue preceding the beginning of the β1-4 strand is observed in four P450 51 structures in the Protein Data Bank: Trypanosoma brucei [3P99] ([48]), Trypanosoma cruzi [6FMO] ([49]), human [6UEZ] ([19]), plus a sterol-forming bacterium, Methylococcus capsulatus [7SNM] ([50]). Whether this interaction is replaced by another with epi-lanosterol is presently a point of conjecture and future research. […]

Assay [2] deals with T1, human P450 51A1. As to the kind of experiment: Oxidation of dihydroagnosterol by human P450 51A1 (LC-UV). The class given is biochemical. More on the design: made in house; host or cells: Escherichia coli. How it is done: The possibility existed that this molecule could be a substrate. […] However, on the basis of the UV and mass spectra and literature precedents ([38], [39]), we have assigned the structure as 4,4′-dimethylcholesta-7,9,14-trienol. The UV spectrum retains (Fig. 6) the detailed chromophore of agnosterol (Fig. S23) plus an additional transition at higher wavelength, as expected based on the UV spectrum of FF-MAS (Fig. S18).
Figure 6 Oxidation of dihydroagnosterol by human P450 51A1. The incubation included 0.1 μM P450 51A1 and 10 μM dihydroagnosterol and ran for 10 min at 37 °C in the absence and presence of NADPH. The products were extracted and analyzed by UPLC-UV and UPLC-MS. A, UPLC chromatogram (UV, 192 and 245 nm). B, mass spectrum [M+H-H2O]^+, calculated for C29H45, 393.3516; found, 393.3493 (−5.9 ppm) and assigned structure. C, UV spectrum (from tR 7.3 min peak of A). UPLC, ultra-performance liquid chromatography.

The record followed here is paper PMC10285260, “Processive kinetics in the three-step lanosterol 14α-demethylation reaction catalyzed by human cytochrome P450 51A1” (The Journal of Biological Chemistry, 2023).

On to `CC(C)CCCC(C)[C@H]1CC[C@@]2(C)C3=CCC4C(C)(C)[C@@H](O)CC[C@]4(C)C3=CC[C@]12C` (stereo partly drawn) [dihydroagnosterol], for which, in assay [1], the half-maximal inhibitory concentration (IC50) – broadly, the midpoint of a concentration-inhibition curve – is ≥ 10 µM. Besides, the “rate of disappearance relative to that of dihydrolanosterol” value in assay [2] is “one-half”. Moreover, the rate of disappearance in assay [2] (0.1 μM P450 51A1, 10 μM dihydroagnosterol, 37 °C) was ~10 min⁻¹.
